Measured values reported in patent US20100255580A1, “Differentiation of Human Embryonic Stem Cells” (LIFESCCAN, INC., priority 2007, published 2010).

Test system: H9 embryonic stem cells
Assay type: cell-based, human
Details: low serum, on MATRIGEL
Procedure: Controls for each group included cells plated on […]-coated dishes and cultured in MEF-conditioned medium or cells plated on MEFs and cultured in ES medium. All groups contained three biological replicates and each biological replicate was repeated on two separate gene chips.
Sample preparation, hybridization, and image analysis were performed according to the Affymetrix Human Genome U133 Plus 2.0 Array. Following normalization and a log transformation, data analysis was performed using OmniViz® software (MA) and […] (VizXLabs, WA). Significant differences in gene expression between the samples were evaluated using analysis of variance and an F-test with adjusted P-value (Benjamini and
Hochberg correction) of ≦b 0.05. Only genes with a present call in at least one group were included in the analysis.

## Activin A: a member of the TGFβ superfamily; R&D Systems; Group 2 = Activin A (100 ng/ml)
  log intensity, H2A histone family, member X: 1.371
  log intensity, H. sapiens skeletal embryonic myosin light chain 1 (MLC1): 0.6901
  log intensity, HT016 mRNA: 0.2188
  log intensity, Homo sapiens nudix (nucleoside diphosphate linked moiety X)-type motif (r1198): 3.915
  log intensity, Human DNA sequence from clone RP4-781L3 on chromosome 1p34.3-36.11: 2.828
  log intensity, Human DNA sequence from clone RP11-446H13 on chromosome 10: −0.8894
  log intensity, Human MLC1emb gene for embryonic myosin alkaline light chain, promoter and exon 1: 1.3489
  log intensity, Human clone 23826 mRNA sequence: 1.808
  log intensity, Human embryonic myosin alkali light chain (MLC1): 1.942
  log intensity, Human extracellular matrix protein 1 (ECM1): 0.6348
  log intensity, Human mRNA for pro-alpha 1 (II) collagen 3end C-term.: 0.8598
  log intensity, Human rho GDI mRNA: 0.01936
  log intensity, KIAA0127 gene product (KIAA0127): 2.052
  log intensity, KIAA0346 protein: −1.347
  log intensity, KIAA0418 gene product: −0.6776
  log intensity, KIAA0761 protein: −2.096
  log intensity, KIAA0882 protein: 2.056
  log intensity, KIAA0918 protein: −1.397
  log intensity, KIAA1415 protein: 0.1859
  log intensity, KIAA1511 protein: 0.6203
  log intensity, Kruppel-like factor 8 (KLF8): 0.3261
  log intensity, LIM homeobox protein 1 (LHX1): −0.7717
  log intensity, LYST-interacting protein LIP3: −0.6821
  log intensity, MAD (mothers against decapentaplegic, Drosophila) homolog 6 (MADH6): 0.9175
  log intensity, MYC-associated zinc finger protein (purine-binding transcription factor) (MAZ): −0.05557
  log intensity, Novel human mRNA from chromosome 22: −0.5337
  log intensity, PNAS-145 mRNA: 2.85
  log intensity, PRO1957 mRNA: 1.689
  log intensity, PTPRF interacting protein, binding protein 2 (liprin beta 2): −1.92
  log intensity, Pig10 (PIG10): 0.1295
  log intensity, SG2NA beta isoform: −1.156
  log intensity, Similar to B9 protein, clone MGC: 11339: 1.439
  log intensity, Similar to RIKEN cDNA C330013D18 gene, clone MGC: 11226: 0.08747
  log intensity, Similar to lipase protein, clone MGC: 2843: −1.161
  log intensity, X75208 H. sapiens HEK2 mRNA for protein tyrosine kinase receptor: −1.367
  log intensity, adaptor-related protein complex 3, beta 2 subunit (AP3B2): −0.2083
  log intensity, adenylate cyclase 8 (brain) (ADCY8): −1.3408
  log intensity, alpha 2,8-sialyltransferase: −1.105
  log intensity, aminolevulinate, delta-, dehydratase, clone MGC: 5057: 1.3099
  log intensity, annexin A6 (ANXA6), transcript variant 1: 3.89
  log intensity, apolipoprotein A-II (APOA2): −1.102
  log intensity, apolipoprotein C-I (APOC1): 3.25
  log intensity, arrestin, beta 1 (ARRB1), transcript variant 1: −0.1588
  log intensity, bHLH factor Hes4 (LOC57801): 0.4782
  log intensity, beta3GalNAcT-1 mRNA for globoside synthase, clone: type 2: −2.733
  log intensity, bone morphogenetic protein 2 (BMP2): 2.045
  log intensity, bone morphogenetic protein 5 (BMP5): −0.6099
  log intensity, bromodomain and PHD finger containing, 3: −2.8472
  log intensity, c-mer proto-oncogene tyrosine kinase (MERTK): 1.79
  log intensity, cDNA FLJ11390 fis, clone HEMBA1000561: −1.129
  log intensity, cDNA FLJ13221 fis, clone NT2RP4002075: 0.2828
  log intensity, cDNA FLJ13392 fis, clone PLACE1001280: −1.902
  log intensity, cDNA FLJ13810 fis, clone THYRO1000279: −2.924
  log intensity, cDNA FLJ30081 fis, clone BGGI12000693: 0.6779
  log intensity, cDNA FLJ34035 fis, clone FCBBF2004788: −3.58
  log intensity, cDNA FLJ36116 fis, clone TESTI2022338: 3.026
  log intensity, cDNA: FLJ22731 fis, clone HSI15841: −2.309
  log intensity, cDNA: FLJ22808 fis, clone KAIA2925: −0.3674
  log intensity, cDNA: FLJ23067 fis, clone LNG04993: −2.256
  log intensity, calmegin (CLGN): −0.1043
  log intensity, cardiac ankyrin repeat protein (CARP): −0.002291
  log intensity, cartilage linking protein 1: 0.8794
  log intensity, caspase-like apoptosis regulatory protein 2 (clarp): 0.4342
  log intensity, chemokine receptor CXCR4 mRNA: 2.306
  log intensity, cleft lip and palate associated transmembrane protein 1, clone MGC: 10593: 1.316
  log intensity, clone FLC1492 PRO3121 mRNA: −0.3
  log intensity, clone HB-2 mRNA sequence: −0.5039
  log intensity, clone IMAGE: 3509274, mRNA, partial cds: 0.4937
  log intensity, clone IMAGE: 4047715, mRNA: −2.508
  log intensity, clone MGC: 14801: 2.039
  log intensity, clone MGC: 24252 IMAGE: 3932604: −1.533
  log intensity, clone TUA8 Cri-du-chat region mRNA: 0.09218
  log intensity, collagen, type V, alpha 1: 1.5875
  log intensity, complement component 5 (C5): −1.896
  log intensity, core histone macroH2A2.2 (MACROH2A2): 1.673
  log intensity, cystatin C (amyloid angiopathy and cerebral hemorrhage) (CST3): 2.086
  log intensity, deiodinase, iodothyronine, type III (DIO3): −0.1369
  log intensity, dickkopf (Xenopus laevis) homolog 1 (DKK1): 0.9815
  log intensity, dual specificity phosphatase 4, clone MGC: 3713: 2.115
  log intensity, dynein, axonemal, light polypeptide 4 (DNAL4): 0.4583
  log intensity, dystrophin (muscular dystrophy, Duchenne and Becker types) (DMD), transcript variant Dp427p2: 1.404
  log intensity, ectodermal dysplasia 1, anhidrotic (ED1): 0.7966
  log intensity, elongation of very long chain fatty acids (FEN1Elo2, SUR4Elo3, yeast)-like 2 (ELOVL2): 0.09998
  log intensity, endothelin receptor type A (EDNRA), mRNA: 0.763
  log intensity, endothelin receptor type A (r1027): −1.834
  log intensity, enolase 2, (gamma, neuronal) (ENO2): 2.606
  log intensity, eomesodermin (Xenopus laevis) homolog (EOMES): 2.659
  log intensity, erythrocyte membrane protein band 4.9 (dematin) (EPB49): −0.3066
  log intensity, fasciculation and elongation protein zeta 1 (zygin I) (FEZ1), transcript variant 1: 1.864
  log intensity, forkhead box F2 (FOXF2): −1.545
  log intensity, gelsolin (amyloidosis, Finnish type) (GSN): 1.6198
  log intensity, glucose-6-phosphate transporter (G6PT) gene, G6PT-Dt allele: −0.1935
  log intensity, glutathione S-transferase A2 (GSTA2): −3.106
  log intensity, glycoprotein M6A: 0.2744
  log intensity, guanylate cyclase activator 1B (retina) (GUCA1B): −0.7142
  log intensity, heparan sulfate proteoglycan 2 (perlecan): −2.533
  log intensity, hexabrachion (tenascin C, cytotactin) (HXB): 3.969
  log intensity, high mobility group protein-R: 1.047
  log intensity, hypothetical protein BC017868 (LOC159091): −0.2902
  log intensity, hypothetical protein DKFZp434F0318: −1.115
  log intensity, hypothetical protein DKFZp434F2322: 0.07058
  log intensity, hypothetical protein DKFZp564B052: 1.478
  log intensity, hypothetical protein FLJ10312: 1.595
  log intensity, hypothetical protein FLJ11155: −3.346
  log intensity, hypothetical protein FLJ11560: −0.04411
  log intensity, hypothetical protein FLJ12538 similar to ras-related protein RAB17: 1.706
  log intensity, hypothetical protein FLJ12666 (r758): 0.2158
  log intensity, hypothetical protein FLJ12666 (r998): 2.341
  log intensity, hypothetical protein FLJ12838: 1.491
  log intensity, hypothetical protein FLJ21195 similar to protein related to DAC and cerberus: −1.385
  log intensity, hypothetical protein FLJ22471: 0.9038
  log intensity, hypothetical protein FLJ23091: −0.7609
  log intensity, hypothetical protein FLJ23514: 0.5646
  log intensity, hypothetical protein FLJ32835: −0.5956
  log intensity, hypothetical protein MGC2865, clone MGC: 20246: −2.431
  log intensity, insulin-like growth factor binding protein 6 (IGFBP6): 2.6126
  log intensity, keratin 19 (KRT19): 3.806
  log intensity, kidney-specific membrane protein NX-17: 1.919
  log intensity, lipase mRNA: −2.2131
  log intensity, lymphocyte antigen 6 complex, locus E (LY6E): 0.8664
  log intensity, mRNA for KIAA0876 protein: −0.432
  log intensity, mRNA for KIAA1161 protein: 0.7818
  log intensity, mRNA for MSX-2: 0.4072
  log intensity, mRNA for protein-tyrosine kinase: 0.161
  log intensity, mRNA; cDNA DKFZp434E082: 1.364
  log intensity, mRNA; cDNA DKFZp434K0621: 0.5814
  log intensity, mRNA; cDNA DKFZp434P228: 1.768
  log intensity, mRNA; cDNA DKFZp547H236: 1.372
  log intensity, mRNA; cDNA DKFZp564K1672: 4.494
  log intensity, mRNA; cDNA DKFZp586G2120: −1.809
  log intensity, mRNA; cDNA DKFZp586L0120: −2.726
  log intensity, mRNA; cDNA DKFZp762H185: 2.837
  log intensity, mandaselin long form: −0.1481
  log intensity, matrix metalloproteinase 15 (membrane-inserted) (MMP15): −0.2985
  log intensity, microseminoprotein, beta-(MSMB): −2.379
  log intensity, mitogen-activated protein kinase 10 (MAPK10): 0.648
  log intensity, nuclear factor of kappa light polypeptide gene enhancer in B-cells inhibitor, alpha: 2.915
  log intensity, nuclear receptor subfamily 0, group B, member 1 (NR0B1) (r534): −1.928
  log intensity, nuclear receptor subfamily 0, group B, member 1 (NR0B1) (r1079): −0.2138
